Measurements reported in US4985449A, “N-benzoyl-N-pyridyloxy phenyl urea compounds and pesticide compositions containing them” (Ishihara Sangyo Kaisha Ltd., priority 1986, dated 1991).

Columns and labels:
Assay type in all cases: in vivo
[1] = test system: diamondback moth (Plutella xylostella); assay: Insecticidal test against diamondback moth (Test Example 2); conditions: 168 h, second or third instar larvae, 7th day after release, 26° C.
Description: (§1) Each formulation containing an active ingredient was dispersed in water to obtain a dispersion of each active ingredient having a concentration of 10 ppm. Leaves of cabbage were dipped in the respective dispersions for about 10 seconds, and then dried in air. A sheet of moistened filter paper was placed in a Petri dish having a diameter of 9 cm, and the dried leaves of cabbage were put on the filter paper. Larvae of diamondback moth (Plutella xylostella) in second or third instar were released on the leaves, and the Petri dishes were covered and kept in a constant temperature chamber with lightening at a temperature of 26° C. On the 7th day after release, dead insects were counted, and the mortality was calculated by the following equation: […]

[2] = test system: common cutworm (Spodoptera litura); assay: Insecticidal test against common cutworm (Test Example 3); conditions: 168 h, second or third instar larvae, 7th day after release
Description: as §1
The tests were conducted in the same manner as in Test Example 2 except that larvae of common cutworm (Spodoptera litura) in second or third instar were used instead of larvae of the diamondback moth in second or third instar, and the concentration of the active ingredient was changed from 10 ppm to 800 ppm or 1 ppm.

[3] = test system: house fly (Musca domestica); assay: Egg hatch inhibition test by the treatment of adults of house fly (Test Example 6); conditions: po, 100 μg/g in diet of adult females for 3 days, unhatched eggs assessed one day after collection, read-out: ratio of the egg hatch inhibition (REHI)
Protocol: Sugar and skim milk were mixed in a weight ratio of 1:1, and 2 g of the mixture was put into a Petri dish having a diameter of 5.5 cm. 0.5 ml of an acetone solution containing the active ingredient was added to the mixture in the Petri dish. After acetone evaporated, the treated mixture was thoroughly mixed, and the concentration of the active ingredient was adjusted to 100 μg/g. Twenty non-mating females of house fly (Musca domestica) were allowed to feed on the poisoned diet (the treated mixture) in a cage. After 3 days, the diet was changed to the untreated mixture, then 20 non-mating males were released into the cage for mating. On the 3rd day after release, a cup of the medium for rearing fly larvae was set in the cage for oviposition for 7 hours. The egg laid on the medium were collected and kept on the moistened filter paper in a Petri dish. One day later, unhatched eggs were assessed and the ratio of the egg hatch inhibition (REHI) was calculated by the following equation: [formula]

SMILES	mortality at 10 ppm [1] [%]	mortality at 1 ppm [2] [%]	mortality at 800 ppm [2] [%]	inhibition at 100 µg/g [3] [%]
Cc1cc(-c2ccc(Br)cc2)ccc1N(C)C(=O)NC(=O)c1c(F)cccc1F [compound 109]	100	100	100	–
CN(C(=O)NC(=O)c1c(F)cccc1F)c1ccc(Oc2ccc([N+](=O)[O-])cc2Cl)cc1 [compound 62]	–	100	–	–
Cc1cc(N(C)C(=O)NC(=O)c2c(F)cccc2F)cc(C)c1Oc1ccc(C(F)(F)F)cc1Cl [compound 65]	–	100	–	–
Cc1cc(N(C)C(=O)NC(=O)c2ccccc2Cl)ccc1Oc1ncc(C(F)(F)F)cc1Cl [compound 77, N-{4-[3-chloro-5-trifluoromethyl-2-pyridyloxy]-3-methylphenyl}-N'-(2-chlorobenzoyl)-N-methylurea]	100	–	–	–
CN(C(=O)NC(=O)c1c(F)cccc1F)c1ccc(Oc2ccc(SC(F)(F)F)cc2)cc1 [compound 39]	100	–	–	–
CN(C(=O)NC(=O)c1c(F)cccc1F)c1ccc(Oc2ccc(C(F)(F)F)cc2Cl)c(F)c1F [Compound No. 5, N-[4-(2-chloro-4-trifluoromethylphenoxy)-2,3-difluorophenyl]-N'-(2,6-difluorobenzoyl)-N-methylurea]	–	–	–	100
Cc1cc(N(C)C(=O)NC(=O)c2c(F)cccc2F)ccc1Oc1ncc(C(F)(F)F)cc1Cl [Compound No. 76]	100	–	–	–
CN(C(=O)NC(=O)c1c(F)cccc1F)c1ccc(Oc2ncc(Cl)cc2C(F)(F)F)cc1 [compound 74]	–	100	–	–
CN(C(=O)NC(=O)c1c(F)cccc1F)c1ccc(-c2ccc(C(F)(F)F)cc2)cc1 [compound 108]	100	100	100	–
CN(C(=O)NC(=O)c1c(F)cccc1F)c1ccc(Oc2ccc(S(=O)(=O)C(F)(F)F)cc2)cc1 [compound 41]	100	–	–	–
Cc1cc(N(C)C(=O)NC(=O)c2ccccc2C)ccc1Oc1ccc(C(F)(F)F)cc1Cl [compound 64]	–	90	–	–
Cc1ccc(N(C)C(=O)NC(=O)c2c(F)cccc2F)cc1Oc1ccc(C(F)(F)F)cc1Cl [compound 115]	–	100	–	–
CN(C(=O)NC(=O)c1c(F)cccc1F)c1ccc(N(C)c2ccc(C(F)(F)F)cc2Cl)cc1 [compound 126]	100	100	100	–
COc1cc(N(C)C(=O)NC(=O)c2c(F)cccc2F)ccc1Oc1ncc(C(F)(F)F)cc1Cl [compound 75]	90	90	–	–
Cc1ccccc1C(=O)NC(=O)N(C)c1cc(C)c(Oc2ccc(C(F)(F)F)cc2Cl)c(C)c1 [compound 66]	–	100	–	–
Cc1ccccc1C(=O)NC(=O)N(C)c1ccc(Oc2ccc(C(F)(F)F)cc2Cl)c(F)c1 [compound 63]	–	100	–	–
CN(C(=O)NC(=O)c1c(F)cccc1F)c1ccc(Oc2ncc(C(F)(F)F)cc2Cl)c(Cl)c1 [compound 15, N-[3-chloro-4-(3-chloro-5-trifluoromethyl-2-pyridyloxy)-phenyl]-N'-(2,6-difluorobenzoyl)-N-methylurea]	–	–	–	100
Cc1cc(Oc2ncc(C(F)(F)F)cc2Cl)ccc1N(C)C(=O)NC(=O)c1c(F)cccc1F [compound 20, N-[4-(3-chloro-5-trifluoromethyl-2-pyridyloxy)-2-methylphenyl]-N'-(2,6-difluorobenzoyl)-N-methylurea]	–	–	–	100
CN(C(=O)NC(=O)c1ccccc1Br)c1ccc(Oc2ncc(C(F)(F)F)cc2Cl)cc1 [Compound No. 80]	–	100	–	–
CN(C(=O)NC(=O)c1c(F)cccc1F)c1ccc(Oc2ccc(C(F)(F)F)cc2)cc1 [compound 40]	90	–	–	–
CN(C(=O)NC(=O)c1c(F)cccc1F)c1ccc(-c2ccc(Cl)cc2)c(F)c1 [Compound No. 31, N-[4'-chloro-2-fluoro-4biphenylyl)-N'-(2,6-difluorobenzoyl)-N-methylurea]	–	–	–	100
CN(C(=O)NC(=O)c1c(F)cccc1F)c1ccc(N(C)c2ncc(C(F)(F)F)cc2Cl)cc1 [compound 125]	100	100	100	–
